Experimental data from patent US20240041976A1, “COMPOSITION AND USE” (priority 2020, published 2024).
Read-outs that look alike come from different tables or passages of the source.

What was measured:
Format in all cases: cell-based, Staphylococcus aureus
[1] = system: S. aureus ATTC 10832; test: Planktonic cell growth inhibition assay (MIC50, liquid culture)
Procedure: (§1) Growth inhibition assays were performed in 96-well microtiter plates as described previously (Chi and Holo, 2018, supra). Briefly, 135 μl of TSB were dispensed in each well of a microtiter plate (according to the number of bacterial strains tested) except in the wells of the first row. The antimicrobials were diluted in TSB to working concentrations in a final volume of 285 μl and dispensed in the wells of the first row. The working concentrations were 100 μg/μl for garvicin KS, 10 μg/μl for micrococcin P1 and 1 mg/ml for penicillin G. From the first row, 150 μl of the antimicrobials were then serially diluted (two-fold dilutions) in a sequential fashion until the last row of the plate. Finally, 15 μl of a fresh O/N culture of each strain were added in the appropriate wells to reach a final volume of 150 μl in each well. The plates were then incubated at 37° C. for 24 h. The growth inhibition was expressed as minimum inhibitory concentration (MIC50), which refers to the minimum concentration of the antimicrobial needed to reduce at least 50% of the microbial growth compared to the untreated control. The MIC50 was assessed by optical density readings at 600 nm (O.D.600).
(§2) Synergistic interactions between antimicrobials were determined using the fractional inhibition concentration (FIC). The FIC values were calculated as follows: the sum of the FIC =FICa+FICb+FICc, where the FICa means MIC of A in combination/MIC of A alone, FICb means MIC of B in combination/MIC of B, and FICc means MIC of C in combination/MIC of C alone. Effects were considered as synergistic if FIC was ≤0.5 for two components mixture and ≤0.75 for three components mixture.

[2] = system: S. aureus ATTC 29213; test: as above
Procedure: as §1, §2

[3] = system: S. aureus ATTC 33591; test: as above
Procedure: as §1, §2

[4] = system: S. aureus Newman; test: as above; conditions: for MIC50: individual component
Procedure: as §1, §2

[5] = system: S. aureus USA 300; test: as above
Procedure: as §1, §2

[6] = system: S.a. 3255; test: as above; conditions: for MIC50: individual component
Procedure: as §1, §2

[7] = system: MRSA 43484; test: AAMP assay and checkerboard synergy; conditions: MRSA 43484; for MIC: Staphylococcus aureus, 24 h, read-out: MIC, single antimicrobial
Procedure: (§3) Antimicrobial activity was measured using the AAMP assay (Wiegand et al., 2008, Nat. Protoc., Vol. 3(2), p 163-175).
(§4) Synergy testing was done with a microtiter plate checkerboard assay as previously described (Orhan et al., 2005, J. Clin. Microbiol., Vol. 43(1), p 140-143). Briefly, equal amounts of antimicrobial A were applied on microtiter plate 1 in wells A1-H1 and then diluted two-fold to wells 2-12. Similarly, equal amounts of antimicrobial B were applied on microtiter plate 2 in wells A1-A12 and diluted two-fold in wells B-H. Volumes of 50 μl of antimicrobial A from each well of microtiter plate 1 were transferred into microtiter plate 3, except for wells H1-H12. Similarly, the same volumes were transferred from microtiter plate 2 into plate 3, except for wells A1-A8. A 100 μl volume of 25 times diluted ON bacterial culture of MRSA was transferred into each well of plate 3. A 50 μl volume of pure broth was added into each well in lines H1-H12 and A1-A8 which were used to estimate MIC values of pure substances (blank).
(§5) Three-component synergy was assessed by mixing the three components (100 μg of PenG, 50 μg of GarKS and 2.5 μg of MP1) into one well of a microtiter plate, compared with activity of individual antimicrobials on the same plate. The fractional inhibition concentration (FIC) which was used to define synergy was calculated as set forth in Example 1.

[8] = system: MRSA ATCC 33591-lux; test: AAMP assay and checkerboard synergy; conditions: MRSA ATCC 33591-lux
Procedure: as §3, §4, §5

[9] = system: MRSA USA-300; test: AAMP assay and checkerboard synergy; conditions: MRSA USA-300; for MIC: Staphylococcus aureus, 24 h, read-out: MIC, single antimicrobial
Procedure: as §3, §4, §5

[10] = system: MRSA; test: MIC of the mixture dissolved in 5% HPC; conditions: for MIC: Staphylococcus aureus, MRSA, read-out: final MIC of the component in the mixture in HPC
Procedure: as §3
We also tested hydroxypropyl cellulose (HPC) which is a more hydrophilic polymer and commonly used for topical and oral pharmaceutical preparations (Alvarez-Lorenzo et al., 1999, Int. J. Pharmaceutics, Vol. 180(1), p 91-103).

[11] = Staphylococcus aureus, ATTC10832, individual component, read-out: MIC50
[12] = garvicin KS + micrococcin P1 + penicillin G
[13] = Staphylococcus aureus, ATTC29213, individual component, read-out: MIC50
[14] = Staphylococcus aureus, ATTC33591, individual component, read-out: MIC50
[15] = Staphylococcus aureus, read-out: MIC50
[16] = Staphylococcus aureus, USA300, individual component, read-out: MIC50

Row | Molecule | MIC50 [1, 11] [µg/mL] | MIC50 of the component in combination [1, 12] [µg/mL] | MIC50 of the component in combination ([1]; garvicin KS + penicillin G) [µg/mL] | MIC50 [2, 13] [µg/mL] | MIC50 of the component in combination [2, 12] [µg/mL] | MIC50 of the component in combination ([2]; garvicin KS + penicillin G) [µg/mL] | MIC50 [3, 14] [µg/mL] | MIC50 of the component in combination [3, 12] [µg/mL] | MIC50 of the component in combination ([3]; garvicin KS + penicillin G) [µg/mL] | MIC50 [4, 15] [µg/mL] | MIC50 of the component in combination [4, 12] [µg/mL] | MIC50 of the component in combination ([4]; garvicin KS + penicillin G) [µg/mL] | MIC50 [5, 16] [µg/mL] | MIC50 of the component in combination [5, 12] [µg/mL] | MIC50 of the component in combination ([5]; garvicin KS + penicillin G) [µg/mL] | MIC50 [6, 15] [µg/mL] | MIC50 of the component in combination [6, 12] | MIC50 of the component in combination ([6]; garvicin KS + penicillin G) [mg/mL] | MIC of the antimicrobial in comb. with GarKS [7] [µg/mL] | MIC [7] [µg/mL] | further results
1 | CC1(C)S[C@@H]2[C@H](NC(=O)Cc3ccccc3)C(=O)N2[C@H]1C(=O)O [Penicillin G] | < 7.8 | <7.8 | <7.8 | 130 | 31 | 130 | > 1000 | 130 | 500 | < 7.8 | <7.8 | <7.8 | > 1000 | 63 | 250 | < 7.8 | <0.0078 mg/mL | <0.0078 | 16 | < 2500 | MIC of GarKS in comb. antibiotic/GarKS/MP1 [7]: 4 µg/mL; MIC of MP1 in comb. antibiotic/GarKS/MP1 [7]: 0.08 µg/mL; MIC of MP1 in comb. with the labelled antibiotic [7]: 0.3 µg/mL; MIC of the antibiotic in comb. with GarKS and MP1 [7]: 8 µg/mL; MIC of the antibiotic in comb. with MP1 [7]: 32 µg/mL; MIC of GarKS in comb. antibiotic/GarKS/MP1 [8]: 4 µg/mL; MIC of MP1 in comb. antibiotic/GarKS/MP1 [8]: 0.08 µg/mL; MIC of MP1 in comb. with the labelled antibiotic [8]: 0.16 µg/mL; MIC of the antibiotic in comb. with GarKS and MP1 [8]: 8 µg/mL; MIC of the antibiotic in comb. with MP1 [8]: 16 µg/mL; MIC of the antimicrobial in comb. with GarKS [8]: 16 µg/mL; MIC ([8]; Staphylococcus aureus, 24 h, read-out: MIC, single antimicrobial): < 2500 µg/mL; MIC of GarKS in comb. antibiotic/GarKS/MP1 [9]: 4 µg/mL; MIC of MP1 in comb. antibiotic/GarKS/MP1 [9]: 0.08 µg/mL; MIC of MP1 in comb. with the labelled antibiotic [9]: 0.3 µg/mL; MIC of the antibiotic in comb. with GarKS and MP1 [9]: 8 µg/mL; MIC of the antibiotic in comb. with MP1 [9]: 32 µg/mL; MIC of the antimicrobial in comb. with GarKS [9]: 16 µg/mL; MIC [9]: < 2500 µg/mL; MIC [10]: 2 µg/mL
2 | C/C=C(\NC(=O)c1csc(-c2csc(-c3ccc4c(n3)-c3csc(n3)[C@H]([C@@H](C)O)NC(=O)c3csc(n3)[C@H](C(C)C)NC(=O)c3csc(n3)/C(=C/C)NC(=O)[C@H]([C@@H](C)O)NC(=O)c3csc-4n3)n2)n1)C(=O)NC[C@@H](C)O [MP1, micrococcin P1] | 0.63 | <0.078 | – | 2.5 | 0.31 | – | > 10 | 1.3 | – | 0.313 | <0.078 | – | 0.63 | 0.63 | – | 10 | <7.8e-05 mg/mL | – | 0.16 | 2.5 | MIC50 of the component in combination ([1]; garvicin KS + micrococcin P1): 0.63 µg/mL; MIC50 of the component in combination ([2]; garvicin KS + micrococcin P1): 1.3 µg/mL; MIC50 of the component in combination ([3]; garvicin KS + micrococcin P1): 1.3 µg/mL; MIC50 of the component in combination ([4]; garvicin KS + micrococcin P1): 0.313 µg/mL; MIC50 of the component in combination ([5]; garvicin KS + micrococcin P1): 0.156 µg/mL; MIC50 of the component in combination ([6]; garvicin KS + micrococcin P1): 0.0013 mg/mL; MIC of the antimicrobial in comb. with GarKS [8]: 0.16 µg/mL; MIC of the antimicrobial in comb. with GarKS [9]: 0.16 µg/mL; MIC [9]: 2.5 µg/mL; MIC [10]: 0.04 µg/mL
3 | Garvicin KS: three-peptide leaderless bacteriocin (GarA, GarB, GarC; SEQ ID NO:6-8), peptides synthesized (peptide, listed as Lactococcus garvieae) chain 1: MGAIIKAGAKIVGKGVLGGGASWLGWNVGEKIWK chain 2: MGAIIKAGAKIIGKGLLGGAAGGATYGGLKKIFG chain 3: MGAIIKAGAKIVGKGALTGGGVWLAEKLFGGK | – | <0.78 | <0.78 | – | 3.1 | 13 | – | 13 | 50 | – | <0.78 | <0.78 | – | 6.3 | 25 | – | <7.8 × 10^−4. mg/ml | <0.00078 | – | – | MIC50 of the component in combination ([1]; garvicin KS + micrococcin P1): 6.3 µg/mL; MIC50 ([1]; individual component): 25 µg/mL; MIC50 of the component in combination ([2]; garvicin KS + micrococcin P1): 13 µg/mL; MIC50 ([2]; individual component): 25 µg/mL; MIC50 of the component in combination ([3]; garvicin KS + micrococcin P1): 13 µg/mL; MIC50 ([3]; individual component): 50 µg/mL; MIC50 of the component in combination ([4]; garvicin KS + micrococcin P1): 3.13 µg/mL; MIC50 [4]: 25 µg/mL; MIC50 of the component in combination ([5]; garvicin KS + micrococcin P1): 1.56 µg/mL; MIC50 ([5]; individual component): 25 µg/mL; MIC50 of the component in combination ([6]; garvicin KS + micrococcin P1): 0.013 mg/mL; MIC50 [6]: 25 µg/mL; MIC, single antimicrobial [7]: 32 µg/mL; MIC, single antimicrobial [8]: 32 µg/mL; MIC, single antimicrobial [9]: 32 µg/mL; final MIC of the component in the mixture in HPC [10]: 2 µg/mL
